DBAASP
Values after ≈ are worked out from the molar mass of the structure shown. One block for each molecule: values may come before it.

Experiments:
Test in all cases: ≥ marks a high value that may be exact or a test limit, other limits are often not marked, values filed in µg/mL are converted to µM
[1] = tested on: Bacillus megaterium Bm11
[2] = tested on: Candida albicans ATCC 10231
[3] = tested on: Escherichia coli ATCC 25922
[4] = tested on: Staphylococcus aureus Cowan 1
[5] = tested on: Staphylococcus capitis 1
[6] = tested on: Yersinia pseudotuberculosis YPIII
[7] = tested on: Bacillus subtilis ATCC 6633
[8] = tested on: Listeria monocytogenes ATCC 7644
[9] = tested on: Salmonella enterica subsp. enterica serovar Typhi ATCC 6399
[10] = tested on: Shigella flexneri
[11] = tested on: Staphylococcus aureus ATCC 25923
[12] = tested on: Streptococcus agalactiae
[13] = tested on: Bacillus subtilis 168
[14] = tested on: Candida albicans F7-39/IDE99
[15] = tested on: Escherichia coli B
[16] = tested on: Micrococcus luteus CCM 144
[17] = tested on: Pseudomonas aeruginosa ATCC 27853
[18] = tested on: Pseudomonas aeruginosa
[19] = tested on: Staphylococcus aureus 1
[20] = tested on: Staphylococcus aureus ATCC 43300
[21] = tested on: Staphylococcus aureus
[22] = tested on: Staphylococcus epidermidis
[23] = tested on: Acinetobacter baumannii NM8
[24] = tested on: Candida albicans ATCC 90028
[25] = tested on: Escherichia coli ATCC 25726
[26] = tested on: Klebsiella pneumoniae ATCC 700603
[27] = tested on: Staphylococcus epidermidis RP62A/1
[28] = tested on: Staphylococcus epidermidis RP62A
[29] = tested on: Stenotrophomonas maltophilia B32/4
[30] = tested on: Bacillus subtilis IFO 3513
[31] = tested on: Escherichia coli IFO 12734
[32] = tested on: Staphylococcus aureus IFO 12732
[33] = tested on: Acinetobacter sp. DSM 586
[34] = tested on: Arthrobacter globiformis VKM Ac-1112
[35] = tested on: Bacillus subtilis VKM B-501
[36] = tested on: Bacillus subtilis subsp. spizizenii DSM 347
[37] = tested on: Escherichia coli DH5alpha
[38] = tested on: Escherichia coli DSM 1116
[39] = tested on: Escherichia coli MH1
[40] = tested on: Pseudomonas aeruginosa PAO1
[41] = tested on: Saccharomyces cerevisiae Y190
[42] = tested on: Staphylococcus xylosus DSM 20267

Compound: CC[C@H](C)[C@H](NC(=O)[C@H](CC(C)C)NC(=O)[C@H](CCCCN)NC(=O)[C@H](CC(C)C)NC(=O)[C@H](C)NC(=O)CNC(=O)[C@H](CCCCN)NC(=O)[C@H](C)NC(=O)[C@H](CC(C)C)NC(=O)[C@H](C)NC(=O)CNC(=O)[C@H](Cc1c[nH]c2ccccc12)NC(=O)[C@@H](N)Cc1ccccc1)C(=O)NCC(=O)N[C@H](C(=O)N[C@@H](CO)C(=O)N[C@@H](CC(C)C)C(=O)N[C@@H](Cc1ccccc1)C(=O)N[C@@H](CO)C(=O)N[C@@H](CO)C(=O)N[C@@H](Cc1ccccc1)C(=O)N[C@@H](CO)C(=O)N[C@@H](CCCCN)C(=O)N[C@@H](CCCCN)C(=O)N[C@@H](CC(=O)O)C(=O)O)C(C)C [FWGALAKGALKLIGVSLFSSFSKKD]
MIC [7]: ≥ 300 µM | MIC [3]: 300 µM (≈ 801 µg/mL) | MIC [8]: ≥ 300 µM | MIC [9]: ≥ 300 µM | MIC [10]: ≥ 300 µM | MIC [11]: 300 µM (≈ 801 µg/mL) | MIC [12]: ≥ 300 µM

Compound: CC[C@H](C)[C@H](NC(=O)[C@H](CC(C)C)NC(=O)[C@H](CCCCN)NC(=O)[C@H](CC(C)C)NC(=O)[C@H](C)NC(=O)CNC(=O)[C@H](CCCCN)NC(=O)[C@H](C)NC(=O)[C@H](CC(C)C)NC(=O)[C@H](C)NC(=O)CNC(=O)[C@H](Cc1c[nH]c2ccccc12)NC(=O)[C@@H](N)Cc1ccccc1)C(=O)N[C@H](C(=O)NCC(=O)N[C@@H](CO)C(=O)N[C@@H](CC(C)C)C(=O)N[C@@H](Cc1ccccc1)C(=O)N[C@@H](CO)C(=O)N[C@@H](CO)C(=O)N[C@@H](Cc1ccccc1)C(=O)N[C@@H](CO)C(=O)N[C@@H](CCCCN)C(=O)N[C@@H](CCCCN)C(=O)N[C@@H](CC(=O)O)C(=O)O)C(C)C [FWGALAKGALKLIVGSLFSSFSKKD]
MIC [7]: ≥ 300 µM | MIC [3]: 300 µM (≈ 801 µg/mL) | MIC [8]: ≥ 300 µM | MIC [9]: ≥ 300 µM | MIC [10]: ≥ 300 µM | MIC [11]: 300 µM (≈ 801 µg/mL) | MIC [12]: ≥ 300 µM

Compound: CC[C@H](C)[C@H](N)C(=O)N[C@@H](CC(C)C)C(=O)N1CCC[C@H]1C(=O)N[C@@H](CCCCN)C(=O)N[C@@H](CCCCN)C(=O)N[C@@H](Cc1c[nH]c2ccccc12)C(=O)N1CCC[C@H]1C(=O)N[C@@H](CCCCN)C(=O)N[C@@H](CC(C)C)C(=O)N1CCC[C@H]1C(=O)N[C@@H](Cc1c[nH]c2ccccc12)C(=O)N[C@@H](CCCN=C(N)N)C(=O)N[C@@H](CCCN=C(N)N)C(N)=O [ILPKKWPKLPWRR]
MIC [30]: 1.82 µM (≈ 3.13 µg/mL) | MIC [31]: 29.1 µM (≈ 50 µg/mL) | MIC [32]: 3.64 µM (≈ 6.25 µg/mL)

Compound: CC[C@H](C)[C@H](N)C(=O)N[C@@H](CC(C)C)C(=O)N1CCC[C@H]1C(=O)N[C@@H](Cc1c[nH]c2ccccc12)C(=O)N[C@@H](CCCCN)C(=O)N[C@@H](CC(C)C)C(=O)N1CCC[C@H]1C(=O)N[C@@H](Cc1c[nH]c2ccccc12)C(=O)N[C@@H](Cc1c[nH]c2ccccc12)C(=O)N1CCC[C@H]1C(=O)N[C@@H](Cc1c[nH]c2ccccc12)C(=O)N[C@@H](CCCN=C(N)N)C(=O)N[C@@H](CCCN=C(N)N)C(N)=O [ILPWKLPWWPWRR]
MIC [30]: 1.71 µM (≈ 3.13 µg/mL) | MIC [31]: 13.6 µM (≈ 25 µg/mL) | MIC [32]: 0.851 µM (≈ 1.56 µg/mL)

Compound: CSCC[C@H](NC(=O)CNC(=O)[C@H](CO)NC(=O)[C@H](Cc1c[nH]c2ccccc12)NC(=O)[C@H](CCSC)NC(=O)[C@@H](N)CO)C(=O)N[C@@H](Cc1c[nH]c2ccccc12)C(=O)N[C@@H](CCCN=C(N)N)C(=O)N[C@@H](CCCN=C(N)N)C(=O)N[C@@H](CCCCN)C(=O)N[C@@H](CC(C)C)C(=O)N[C@@H](CCCCN)C(=O)N[C@@H](CCCCN)C(=O)N[C@@H](CC(C)C)C(=O)N[C@@H](CCCN=C(N)N)C(=O)N[C@@H](CC(N)=O)C(=O)N[C@@H](C)C(=O)N[C@@H](CC(C)C)C(=O)N[C@@H](CCCCN)C(=O)N[C@@H](CCCCN)C(=O)N[C@@H](CCCCN)C(=O)N[C@@H](CC(C)C)C(=O)N[C@@H](CCCCN)C(=O)NCC(=O)N[C@@H](CCC(=O)O)C(=O)O [SMWSGMWRRKLKKLRNALKKKLKGE]
MIC [33]: 1.3 µM (≈ 4 µg/mL) | MIC [34]: 0.5 µM (≈ 1.54 µg/mL) | MIC [35]: 1 µM (≈ 3.07 µg/mL) | MIC [36]: 1.3 µM (≈ 4 µg/mL) | MIC [37]: 1 µM (≈ 3.07 µg/mL) | MIC [38]: 1.3 µM (≈ 4 µg/mL) | MIC [39]: 0.7 µM (≈ 2.15 µg/mL) | MIC [40]: 4.1 µM (≈ 12.6 µg/mL) | MIC [41]: ≥ 33 µM | MIC [42]: 1.3 µM (≈ 4 µg/mL)

Results, then the molecule that gave them:

MIC [1]: 2.5 µM (≈ 3.43 µg/mL) | MIC [2]: 1.25 µM (≈ 1.71 µg/mL) | MIC [3]: > 40 µM | MIC [4]: 2.5 µM (≈ 3.43 µg/mL) | MIC [5]: 2.5 µM (≈ 3.43 µg/mL) | MIC [6]: 20 µM (≈ 27.4 µg/mL)
Compound: CC[C@H](C)[C@H](NC(=O)CNC(=O)[C@H](CO)NC(=O)[C@H](CC(C)C)NC(=O)[C@@H](NC(=O)[C@H](CCCN=C(N)N)NC(=O)CNC(=O)[C@@H](NC(=O)[C@H](CC(C)C)NC(=O)[C@H](C)NC(=O)[C@H](CC(C)C)NC(=O)[C@@H](N)Cc1ccccc1)[C@@H](C)CC)C(C)C)C(=O)N[C@@H](CC(C)C)C(N)=O [FLALIGRVLSGIL]

MIC [13]: 7 µM (≈ 12.3 µg/mL) | MIC [14]: 14 µM (≈ 24.6 µg/mL) | MIC [15]: 15 µM (≈ 26.3 µg/mL) | MIC [16]: 3 µM (≈ 5.27 µg/mL) | MIC [17]: 7.9 µM (≈ 13.9 µg/mL) | MIC [18]: 20 µM (≈ 35.1 µg/mL) | MIC [19]: ≥ 35 µM | MIC [20]: 63 µM (≈ 111 µg/mL) | MIC [21]: 63 µM (≈ 111 µg/mL) | MIC [22]: 6.2 µM (≈ 10.9 µg/mL)
Compound: CC[C@H](C)[C@H](NC(=O)CN)C(=O)N[C@@H](CCSC)C(=O)N[C@@H](CO)C(=O)N[C@@H](CO)C(=O)N[C@@H](CC(C)C)C(=O)N[C@@H](CCSC)C(=O)N[C@@H](CCCCN)C(=O)N[C@@H](CCCCN)C(=O)N[C@@H](CC(C)C)C(=O)N[C@@H](C)C(=O)N[C@@H](CCCCN)C(=O)N[C@@H](Cc1cnc[nH]1)C(=O)N[C@H](C(=O)N[C@@H](C)C(=O)N[C@@H](CCCCN)C(N)=O)[C@@H](C)CC [GIMSSLMKKLAKHIAK]

MIC [23]: 8 µM (≈ 13.2 µg/mL) | MIC [24]: 16 µM (≈ 26.5 µg/mL) | MIC [25]: ≥ 32 µM | MIC [26]: 32 µM (≈ 52.9 µg/mL) | MIC [17]: 32 µM (≈ 52.9 µg/mL) | MIC [11]: 4 µM (≈ 6.62 µg/mL) | MIC [27]: 4 µM (≈ 6.62 µg/mL) | MIC [28]: 4 µM (≈ 6.62 µg/mL) | MIC [29]: ≥ 32 µM
Compound: CC[C@H](C)[C@H](N)C(=O)N[C@@H](CC(C)C)C(=O)NCC(=O)N[C@@H](CCCCN)C(=O)N[C@@H](CC(C)C)C(=O)N[C@@H](CC(C)C)C(=O)N[C@@H](CO)C(=O)N[C@H](C(=O)N[C@@H](C)C(=O)N[C@@H](C)C(=O)N[C@@H](CCCCN)C(=O)N[C@@H](CC(C)C)C(=O)N[C@@H](CC(C)C)C(=O)N[C@@H](CO)C(=O)N[C@@H](CC(N)=O)C(=O)N[C@@H](CC(C)C)C(N)=O)[C@@H](C)O [ILGKLLSTAAKLLSNL]
